How the values were obtained:
[1] = system: cholesterol synthesis in human hepatic T9A4 cells; assay: Inhibition test for cholesterol synthesis, 14C-acetate incorporation into cholesterol; assay type: cell-based; details: 1 mM 14C-acetate, 20 h, liquid fermentation extracts, extract concentration in the medium per row (37-70 μg/ml; lovastatin 0.5 μg/ml)
Description: (§1) The human hepatic T9A4 cells were grown in the serum-free LCM medium (Biofluids, Rockville, Md., USA) under 3.5% CO2 at 37° C. The cells were seeded into 24 well plates and incubated at confluency with 1 mM ^14C-acetate (1 mCi/mmol, Amersham) for 20 h in the absence (control) or in the presence of the fermented extract fractions. Cells were also incubated with 1.17 mM ^14C-mevalonate (0.85 mCi/mmol, Amersham) for 20 h in order to evaluate whether the compounds stemming from the microorganisms to be tested have an inhibitory effect downstream the HMGCoA/Mevalonate conversion step.
(§2) Lipid extraction was performed twice by incubation with hexane:isopropanol (3:2) for 30 min at room temperature. The combined extracts were dried under N2, redissolved in hexane and subjected to high performance thin layer chromatography (Merck, Darmstadt, Germany) in a solvent mixture of hexane:diethyl ether:acetic acid (75:25:1). The neo-synthesis of cholesterol was determined by measuring the ^14C-acetate incorporation into the cholesterol with an instant imager (Camberra Packard, Zurich, Switzerland) and expressed as percent of the control.

[2] = system: cholesterol synthesis in human hepatic T9A4 cells; assay: Inhibition test for cholesterol synthesis in presence of 14C-mevalonate (downstream of HMGCoA/mevalonate step); assay type: cell-based
Description: as §1, §2

Structure (SMILES): CC[C@H](C)C(=O)O[C@H]1C[C@@H](C)C=C2C=C[C@H](C)[C@H](CC[C@@H]3C[C@@H](O)CC(=O)O3)[C@H]21 [LOVASTATIN, lovastatin]
- inhibition at 0.5 µg/mL [1]: 56%
- inhibitory effect on cholesterol biosynthesis (in words) ([2]; T9A4 cells, in presence of 14C-mevalonate): does not inhibit cholesterol biosynthesis
- inhibition at 0.5 µg/mL ([2]; human hepatic T9A4 cells, 1.17 mM 14C-mevalonate, 20 h, extract concentration in the medium per row (37-50 μg/ml; lovastatin 0.5 μg/ml)): 0%
